Assay [1] deals with T1, Hepatocyte growth factor receptor (Homo sapiens, UniProt P08581). Briefly: Binding affinity to his-tagged wild type c-MET (1050 to 1346 residues) (unknown origin) by surface plasmon resonance analysis. In general terms: Surface plasmon resonance follows binding to a sensor surface in real time, without labels.
In assay [2] the target is T1, Hepatocyte growth factor receptor. Briefly: Binding affinity to his-tagged c-MET (1050 to 1346 residues) (unknown origin) assessed as binding constant (Koff) by surface plasmon resonance analysis.
Assay [3] has as its target T2, Hepatocyte growth factor receptor (Homo sapiens, UniProt P08581, D1228V). The assay is described as follows: Binding affinity to his-tagged c-MET D1228V mutant (1050 to 1346 residues) (unknown origin) assessed as dissociation constant by surface plasmon resonance analysis.
The target of assay [4] is T1, Hepatocyte growth factor receptor. Briefly: Binding affinity to his-tagged c-MET (1050 to 1346 residues) (unknown origin) assessed as binding constant (Kon) by surface plasmon resonance analysis.
The target in assay [5] is T2, Hepatocyte growth factor receptor. Briefly: Inhibition of his-tagged c-MET D1228V mutant (1050 to 1346 residues) (unknown origin) in human NCI-H1993 cells by HTRF analysis. In kind it is cell-based. For orientation: Time-resolved FRET reads energy transfer from a long-lived donor to a nearby acceptor.
The target is the same in assay [6]. The assay is described as follows: Inhibition of his-tagged c-MET D1228V mutant (1050 to 1346 residues) (unknown origin) by ADP-glo assay. Background: ADP-Glo turns the ADP formed in a reaction into a luminescent signal.
Assay [7] addresses Calcium/calmodulin-dependent protein kinase type 1 (Homo sapiens) (UniProt Q14012). The assay is described as follows: Inhibition of CAMK1 (unknown origin) at 10 uM relative to control.
Assay [8] concerns the target T1, Hepatocyte growth factor receptor. The assay is described as follows: Inhibition of wild type c-MET (unknown origin ) at 10 uM relative to control.
For assay [9] the target is unchanged. Briefly: Inhibition of his-tagged wild type c-MET (1050 to 1346 residues) (unknown origin) in human NCI-H1993 cells by HTRF analysis. In kind it is cell-based.
Assay [10] has the same target. The assay is described as follows: Inhibition of his-tagged wild type c-MET (1050 to 1346 residues) (unknown origin) by ADP-glo assay.
The target of assay [11] is TRAF2 and NCK-interacting protein kinase (Homo sapiens) (UniProt Q9UKE5). The assay is described as follows: Inhibition of TNIK (unknown origin) at 10 uM relative to control.
TRAF2 and NCK-interacting protein kinase (Homo sapiens), sequence (Q9UKE5 whole entry, looked up): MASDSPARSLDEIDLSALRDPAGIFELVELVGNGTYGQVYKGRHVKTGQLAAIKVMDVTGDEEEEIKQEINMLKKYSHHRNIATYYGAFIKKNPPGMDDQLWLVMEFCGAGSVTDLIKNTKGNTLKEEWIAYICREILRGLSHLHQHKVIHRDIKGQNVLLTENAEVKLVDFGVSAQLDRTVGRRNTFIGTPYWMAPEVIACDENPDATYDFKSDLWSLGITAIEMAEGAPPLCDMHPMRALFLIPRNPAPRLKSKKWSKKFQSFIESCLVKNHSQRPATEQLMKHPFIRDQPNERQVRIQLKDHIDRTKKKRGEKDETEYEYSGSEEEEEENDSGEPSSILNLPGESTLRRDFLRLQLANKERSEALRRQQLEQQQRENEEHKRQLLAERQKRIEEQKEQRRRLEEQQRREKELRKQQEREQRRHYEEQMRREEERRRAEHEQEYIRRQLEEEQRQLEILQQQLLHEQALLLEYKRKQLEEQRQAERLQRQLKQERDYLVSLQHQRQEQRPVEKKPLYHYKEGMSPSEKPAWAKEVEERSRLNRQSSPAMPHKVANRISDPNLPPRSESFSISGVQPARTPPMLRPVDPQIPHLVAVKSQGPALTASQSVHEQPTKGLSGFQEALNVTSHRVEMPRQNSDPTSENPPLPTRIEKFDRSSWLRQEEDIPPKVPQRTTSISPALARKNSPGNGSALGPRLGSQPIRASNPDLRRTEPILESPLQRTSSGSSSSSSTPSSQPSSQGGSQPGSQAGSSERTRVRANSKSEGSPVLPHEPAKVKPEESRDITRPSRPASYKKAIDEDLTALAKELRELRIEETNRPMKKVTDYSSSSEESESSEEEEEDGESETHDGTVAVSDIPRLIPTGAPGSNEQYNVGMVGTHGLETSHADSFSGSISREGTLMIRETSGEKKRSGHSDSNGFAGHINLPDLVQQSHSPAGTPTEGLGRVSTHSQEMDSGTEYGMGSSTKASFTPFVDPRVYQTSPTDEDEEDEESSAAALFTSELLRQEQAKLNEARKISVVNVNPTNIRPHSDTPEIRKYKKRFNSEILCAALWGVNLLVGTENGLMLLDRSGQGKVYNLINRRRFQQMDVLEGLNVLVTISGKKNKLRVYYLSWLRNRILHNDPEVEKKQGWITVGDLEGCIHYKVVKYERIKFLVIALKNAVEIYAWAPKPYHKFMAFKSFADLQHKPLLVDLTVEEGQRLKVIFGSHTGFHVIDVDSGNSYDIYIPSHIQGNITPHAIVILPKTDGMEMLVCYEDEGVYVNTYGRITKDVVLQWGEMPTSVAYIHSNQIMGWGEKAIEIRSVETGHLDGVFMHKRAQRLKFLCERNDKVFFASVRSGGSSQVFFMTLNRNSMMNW

Where only a bound is given, the exact number is not on record here.

What is called Kd is a measure of binding affinity in units of concentration. The term koff denotes a measure of how fast the partners let go of each other. As a reminder, the IC50 is the concentration needed to halve the response being measured. As a reminder, the inhibition is the drop in the measured response relative to a control, in per cent.

Calcium/calmodulin-dependent protein kinase type 1 (Homo sapiens), sequence (Q14012 whole entry, looked up): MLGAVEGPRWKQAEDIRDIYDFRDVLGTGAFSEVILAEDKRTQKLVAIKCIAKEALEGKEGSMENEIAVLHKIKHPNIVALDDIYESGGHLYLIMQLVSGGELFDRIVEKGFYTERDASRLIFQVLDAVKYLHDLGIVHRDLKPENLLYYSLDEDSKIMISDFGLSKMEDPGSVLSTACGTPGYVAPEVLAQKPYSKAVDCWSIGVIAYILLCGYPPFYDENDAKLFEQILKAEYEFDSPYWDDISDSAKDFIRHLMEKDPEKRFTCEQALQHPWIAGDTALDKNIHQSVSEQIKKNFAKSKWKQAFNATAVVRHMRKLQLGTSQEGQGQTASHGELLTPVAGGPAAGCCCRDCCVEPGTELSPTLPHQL

`Cc1ccc(-c2ccc3c(C)n[nH]c3c2)c2c1C(N(C)C(=O)c1ncccc1C(F)F)CCC2` (racemic): the Kd is over 20 µM in assay [1] and 1.4 µM in assay [3]. Moreover, the koff in [2] was found to be 0.0053 s⁻¹. Further, in assay [4], the K is 3.7 10^3/M/s.
Consider `Cc1ccc(-c2ccc3c(C)n[nH]c3c2)c2c1[C@H](N(C)C(=O)c1ncccc1C(F)F)CCC2`, for which the IC50 is 12 µM in assay [5] (read-out: IC50), 0.09 µM in [6], over 30 µM in assay [9] (read-out: IC50) and 0.9 µM in [10]. Further, the values for the Kd in [1] and in assay [3] were 7.2 µM and 0.65 µM, respectively. Besides, the inhibition in assay [7], in [8] and in assay [11] was over 70% in each case.
For `Cc1ccc(-c2ccc3c(C)n[nH]c3c2)c2c1[C@@H](N(C)C(=O)c1ncccc1C(F)F)CCC2`, the IC50 entry in [5] (nci-h1993) is “Not Active”; in assay [6], 11 µM; in assay [9] (nci-h1993), “Not Active”; in assay [10] it was 4.94 µM. Besides, the Kd in [1] worked out at 2.8 µM; in [3], 5.3 µM.
